Data as given in US20260248774A1, “INHIBITORS OF BACTERIAL TYPE III SECRETION SYSTEM” (MICROBIOTIX, INC., priority 2022, published 2026).

Assay: Mammalian cytotoxicity (CC50), MTS conversion
Type: cell-based, human
Settings: human, Table 9; cytotoxicity vs. HeLa cells; read-out: Cytotox CC50
Protocol: Determination of Mammalian Cytotoxicity.
Following incubation for 3 days at 37° C. in VP-SFM, cell viability was measured with the vital tetrazolium salt stain 3-(4,5-dimethylthiazol-2-yl)-2,5 diphenyltetrazolium bromide according to the manufacturer's instructions (Promega, Madison, Wisconsin). Values were determined in triplicate using dilutions of inhibitory compound from 100 μM to 0.2 μM.

| Structure (SMILES) | CC50 at 3 days [µM] |
| --- | --- |
| CC[C@@H](Oc1ncc(Cl)cc1Cl)C(=O)NCc1cccc(C(=O)NC2CN(CCCC(=O)[O-])C2)c1.[Li+] [MBX-5430A] | ≥ 200 |
| CC[C@@H](Oc1ncc(Cl)cc1Cl)C(=O)NCc1cccc(NC(=O)NC2CN(CCC(=O)[O-])C2)c1.[Li+] [MBX-5442A] | ≥ 200 |
| CC[C@@H](Oc1ncc(Cl)cc1Cl)C(=O)NCc1cccc(C(=O)NC2CN(CC(=O)[O-])C2)c1.[Li+] [MBX-5454A] | ≥ 100 |
| CC[C@@H](Oc1ncc(Cl)cc1Cl)C(=O)NCc1cccc(CNC2CC(C(=O)[O-])C2)c1.[Li+] (stereo partly drawn) [MBX-5456A] | 107 |
| CC[C@@H](Oc1ncc(Cl)cc1Cl)C(=O)NCc1cccc(NC(=O)NCC2CN(CC(=O)O)C2)c1 [MBX-7438A] | ≥ 200 |
| CC[C@@H](Oc1ccc(Cl)c(Cl)c1Cl)C(=O)NCc1cccc(NC(=O)NC2CC3(C2)CN(CC(=O)O)C3)c1 [MBX-7476A] | ≥ 200 |
| CC[C@@H](Oc1ccc(Cl)c(Cl)c1Cl)C(=O)NCCc1cccc(NC(=O)NC2CC3(C2)CN(CCC(=O)O)C3)c1 [MBX-7477A] | ≥ 200 |
| CC[C@@H](Oc1ccc(Cl)c(Cl)c1Cl)C(=O)NCCc1cccc(NC(=O)NC2CC3(C2)CN(CC(=O)O)C3)c1 [MBX-7478A] | ≥ 200 |
| CC[C@@H](Oc1ncc(Cl)cc1Cl)C(=O)NCc1cccc(NC(=O)NCCNCC(=O)O)c1 [MBX-7497A] | ≥ 200 |
| CC[C@@H](Oc1ncc(Cl)cc1Cl)C(=O)NCc1cccc(NC(=O)NC2COCC(NCCC(=O)O)C2)c1 (stereo partly drawn) [MBX-7531A] | ≥ 200 |

Assay: Kinetic aqueous solubility (nephelometric assay)
Type: physicochemical
Settings: kinetic from dmso stock; Table 9; kinetic solubility in water (nephelometric assay)
Excerpt: Solubility. The maximum aqueous solubility of analogs will be initially determined by nephelometry using a published method (44).

| Structure (SMILES) | solubility kinetic [µM] |
| --- | --- |
| CC[C@@H](Oc1ncc(Cl)cc1Cl)C(=O)NCc1cccc(C(=O)NC2CN(CCCC(=O)[O-])C2)c1.[Li+] [MBX-5430A] | 200 |
| CC[C@@H](Oc1ncc(Cl)cc1Cl)C(=O)NCc1cccc(NC(=O)NC2CN(CCC(=O)[O-])C2)c1.[Li+] [MBX-5442A] | 200 |
| CC[C@@H](Oc1ncc(Cl)cc1Cl)C(=O)NCc1cccc(C(=O)NC2CN(CC(=O)[O-])C2)c1.[Li+] [MBX-5454A] | 200 |
| CC[C@@H](Oc1ncc(Cl)cc1Cl)C(=O)NCc1cccc(CNC2CC(C(=O)[O-])C2)c1.[Li+] (stereo partly drawn) [MBX-5456A] | 200 |
| CC[C@@H](Oc1ncc(Cl)cc1Cl)C(=O)NCc1cccc(C(=O)NCC2CC3(C2)CN(CCC(=O)[O-])C3)c1.[Li+] [MBX-5522A] | ≥ 400 |
| CC[C@@H](Oc1ncc(Cl)cc1Cl)C(=O)NCc1cccc(C(=O)NC2CC3(C2)CN(CCCC(=O)[O-])C3)c1.[Li+] [MBX-5524A] | ≥ 400 |
| CC[C@@H](Oc1ncc(Cl)cc1Cl)C(=O)NCc1cccc(C(=O)NC2CC3(C2)CN(CC(=O)[O-])C3)c1.[Li+] [MBX-5527A] | ≥ 400 |
| CC[C@@H](Oc1ncc(Cl)cc1Cl)C(=O)NCc1cccc(C(=O)N2CC3(CC(NCCC(=O)[O-])C3)C2)c1.[Li+] [MBX-5529A] | ≥ 400 |
| CC[C@@H](Oc1ncc(Cl)cc1Cl)C(=O)NCc1cccc(CC(=O)NC2CC3(C2)CN(CCC(=O)[O-])C3)c1.[Li+] [MBX-5548A] | 200 |
| CC[C@@H](Oc1ncc(Cl)cc1Cl)C(=O)NCc1cccc(NC(=O)N2CC3(CN(CC(C)(C)C(=O)[O-])C3)C2)c1.[Li+] [MBX-7061A] | 1.1 |
| CC[C@@H](Oc1ncc(Cl)cc1Cl)C(=O)NCc1cccc(NC(=O)N2CC3(CN(CCC(=O)[O-])C3)C2)c1.[Li+] [MBX-7062A] | 3.5 |
